# Measured values published in patent publication US10758534B2 (Vertex Pharmaceuticals Incorporated, priority 2014, dated 2020).
# Like-named read-outs stand apart in the source and are kept apart here.
# Target: T1, F508del (Homo sapiens, UniProt P13569, DEL508-508)
# T1 construct: expressed in transfected cells
# Assay: Protocol 2: FRET membrane potential optical assay (VIPR), identification of correction compounds
# Type: cell-based
# In short: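 Corrector readout: membrane-potential FRET (CC2-DMPE donor, DiSBAC2(3) acceptor) on VIPR II after Cl⁻-free gluconate bath with 10 μM forskolin and 20 μM genistein. Before this, F508del-expressing NIH3T3 cells were exposed to test compound for 16 h at 37 °C without serum; 27 °C incubation served as temperature-correction control.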
# [1] = F508del CFTR modulator activity, compounds of Table 1, read-out: EC30
# [2] = Table 3, compounds of Table 1 as modulators of CFTR activity, protocol not stated
# T1 sequence (P13569 with tags, fused parts or gaps DEL508-508): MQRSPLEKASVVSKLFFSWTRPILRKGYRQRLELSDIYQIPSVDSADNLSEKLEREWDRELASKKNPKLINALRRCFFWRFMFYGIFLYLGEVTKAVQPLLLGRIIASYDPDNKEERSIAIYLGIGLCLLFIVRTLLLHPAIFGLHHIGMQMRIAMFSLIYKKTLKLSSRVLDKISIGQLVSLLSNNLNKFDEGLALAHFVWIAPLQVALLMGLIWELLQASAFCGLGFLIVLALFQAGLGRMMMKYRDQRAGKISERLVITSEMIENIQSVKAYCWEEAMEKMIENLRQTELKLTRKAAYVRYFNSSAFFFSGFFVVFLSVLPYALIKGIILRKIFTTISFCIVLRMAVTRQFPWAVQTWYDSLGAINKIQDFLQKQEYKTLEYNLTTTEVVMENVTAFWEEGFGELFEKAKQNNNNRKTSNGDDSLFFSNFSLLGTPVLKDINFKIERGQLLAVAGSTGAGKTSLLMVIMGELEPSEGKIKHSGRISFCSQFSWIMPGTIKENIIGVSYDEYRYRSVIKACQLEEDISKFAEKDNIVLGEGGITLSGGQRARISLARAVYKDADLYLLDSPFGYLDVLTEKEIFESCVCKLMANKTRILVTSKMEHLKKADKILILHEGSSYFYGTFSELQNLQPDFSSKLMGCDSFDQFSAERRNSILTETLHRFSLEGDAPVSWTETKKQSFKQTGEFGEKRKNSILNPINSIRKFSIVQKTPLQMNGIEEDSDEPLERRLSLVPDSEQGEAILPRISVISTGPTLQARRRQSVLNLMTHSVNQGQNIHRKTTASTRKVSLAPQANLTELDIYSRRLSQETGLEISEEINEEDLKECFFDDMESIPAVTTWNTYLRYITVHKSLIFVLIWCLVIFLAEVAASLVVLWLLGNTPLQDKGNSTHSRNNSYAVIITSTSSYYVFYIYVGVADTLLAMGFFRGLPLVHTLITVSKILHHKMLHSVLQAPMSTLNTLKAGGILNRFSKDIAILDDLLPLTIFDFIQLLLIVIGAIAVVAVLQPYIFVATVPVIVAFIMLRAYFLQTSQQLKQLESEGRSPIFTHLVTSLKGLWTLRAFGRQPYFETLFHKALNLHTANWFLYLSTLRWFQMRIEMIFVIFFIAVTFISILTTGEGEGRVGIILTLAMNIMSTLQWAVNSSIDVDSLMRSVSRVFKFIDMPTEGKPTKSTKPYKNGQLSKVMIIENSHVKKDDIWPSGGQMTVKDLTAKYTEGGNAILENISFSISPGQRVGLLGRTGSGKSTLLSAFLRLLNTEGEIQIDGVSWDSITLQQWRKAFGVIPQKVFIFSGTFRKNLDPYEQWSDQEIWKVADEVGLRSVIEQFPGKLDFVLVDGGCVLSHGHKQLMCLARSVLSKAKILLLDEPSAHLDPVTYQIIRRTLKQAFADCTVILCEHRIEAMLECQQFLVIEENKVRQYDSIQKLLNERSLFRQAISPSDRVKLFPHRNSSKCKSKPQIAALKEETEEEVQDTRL
SMILES,EC30 [1] [µM],EC30 [2]
"CCC(C)(C)C(=O)N1CCC=C(c2ccc(C(=O)NS(=O)(=O)c3cccc(N)n3)c(N3C[C@@H](C)CC3(C)C)n2)C1 [Compound 2612, N-[(6-amino-2-pyridyl)sulfonyl]-6-[1-(2,2-dimethylbutanoyl)-3,6-dihydro-2H-pyridin-5-yl]-2-[(4S)-2,2,4-trimethylpyrrolidin-1-yl]pyridine-3-carboxamide]",3 to 10,
"Cc1cccc(C)c1Cn1nc(-c2cccc(F)c2)cc1C(=O)NS(=O)(=O)c1ccccc1 [Compound 166, N-(benzenesulfonyl)-2-[(2,6-dimethylphenyl)methyl]-5-(3-fluorophenyl)pyrazole-3-carboxamide]",,+++ (“+++” means <3 uM)
"Cc1cc(C)c(Oc2nc(C(C)(C)C)ccc2C(=O)NS(=O)(=O)c2ccccc2)c(C)c1 [Compound 341, N-(benzenesulfonyl)-6-tert-butyl-2-(2,4,6-trimethylphenoxy)pyridine-3-carboxamide]",,+++ (“+++” means <3 uM)
"COc1ccccc1S(=O)(=O)NC(=O)C1c2ccccc2CN1Cc1c(C)cc(C)cc1C (stereo not shown) [Compound 79, N-(2-methoxyphenyl)sulfonyl-2-[(2,4,6-trimethylphenyl)methyl]isoindoline-1-carboxamide]",,++ (“++” means between 3 uM and 10 uM)
"CCOc1cccc(-c2cc(C(=O)NS(=O)(=O)c3ccccc3)n(Cc3c(C)cccc3C)n2)c1 [Compound 280, N-(benzenesulfonyl)-2-[(2,6-dimethylphenyl)methyl]-5-(3-ethoxyphenyl)pyrazole-3-carboxamide]",,+++ (“+++” means <3 uM)
"CC(C)(C)c1ccc(C(=O)NS(=O)(=O)c2ccccc2)c(OCc2ccccn2)n1 [Compound 154, N-(benzenesulfonyl)-6-tert-butyl-2-(2-pyridylmethoxy)pyridine-3-carboxamide]",,+++ (“+++” means <3 uM)

# The next lines start with the values.
EC30 [1] [µM],EC30 [2],SMILES
< 3,,"CCOc1cc(-c2ccc(C(=O)NS(=O)(=O)c3cccc(N)n3)c(N3C[C@@H](C)CC3(C)C)n2)cc(C)n1 [Compound 2364, N-[(6-amino-2-pyridyl)sulfonyl]-6-(2-ethoxy-6-methyl-4-pyridyl)-2-[(4S)-2,2,4-trimethylpyrrolidin-1-yl]pyridine-3-carboxamide]"
< 3,,"CC1CN(c2ncccc2C(=O)NS(=O)(=O)c2cccc(NCCc3cccs3)n2)C(C)(C)C1 (stereo not shown) [Compound 2146, N—[[6-[2-(2-thienyl)ethylamino]-2-pyridyl]sulfonyl]-2-(2,2,4-trimethylpyrrolidin-1-yl)pyridine-3-carboxamide]"
< 3,,"Cc1cc(C)cc(-c2ccc(C(=O)NS(=O)(=O)c3cccnc3N)c(N3C[C@@H](C)CC3(C)C)n2)c1 [Compound 2127, N-[(2-amino-3-pyridyl)sulfonyl]-6-(3,5-dimethylphenyl)-2-[(4S)-2,2,4-trimethylpyrrolidin-1-yl]pyridine-3-carboxamide]"
< 3,,"COc1cccc(Oc2cccc(S(=O)(=O)NC(=O)c3cccnc3N3CC(C)CC3(C)C)n2)c1 (stereo not shown) [Compound 2551, N—[[6-(3-methoxyphenoxy)-2-pyridyl]sulfonyl]-2-(2,2,4-trimethylpyrrolidin-1-yl)pyridine-3-carboxamide]"
< 3,,"CCOc1cc(-c2ccc(C(=O)NS(=O)(=O)c3cccnc3N)c(N3C[C@@H](C)CC3(C)C)n2)ccc1F [Compound 2665, N-[(2-amino-3-pyridyl)sulfonyl]-6-(3-ethoxy-4-fluoro-phenyl)-2-[(4S)-2,2,4-trimethylpyrrolidin-1-yl]pyridine-3-carboxamide]"
< 3,,"CC1CN(c2ncccc2C(=O)NS(=O)(=O)c2cccc(Oc3cccc(Cl)c3F)n2)C(C)(C)C1 (stereo not shown) [Compound 2165, N—[[6-(3-chloro-2-fluoro-phenoxy)-2-pyridyl]sulfonyl]-2-(2,2,4-trimethylpyrrolidin-1-yl)pyridine-3-carboxamide]"
< 3,,"C[C@@H]1CN(c2nc(-c3cccc(OC(F)(F)F)c3)ccc2C(=O)NS(=O)(=O)c2cccc(N)n2)C(C)(C)C1 [Compound 2366, N-[(6-amino-2-pyridyl)sulfonyl]-6-[3-(trifluoromethoxy)phenyl]-2-[(4S)-2,2,4-trimethylpyrrolidin-1-yl]pyridine-3-carboxamide]"
